Laboratory results as given in PubChem BioAssay AID651816 (Broad Institute, 2012).
“And” between values parts separate entries of the source, which are not always exact repeats. Identical values can stand only once. The source made the active and inactive calls. How the calls were made is not given here.

system: not listed separately; experiment: V. cholerae BH1578 luminescence activators, luxS cqsA deficient, dose response confirmation, dry powder (AID 651816); details: V. cholerae BH1578 luxCDABE luminescence, 6 h; at 80 µM (top of the series)

SMILES | activation
O=C(NCc1ccc(-c2ccccc2)cc1)C1CCCC1 | 0.19% (inactive)
O=C(Cc1ccccc1F)NC1CCCC1 | 0.028% (inactive)
CCn1nnnc1NCc1cccc(OC)c1 | 3.31% (inactive)
CS(=O)(=O)c1ccc(CC(=O)NC2CCCC2)cc1 | -0.008% (inactive)
O=C(Cc1ccccc1OC(F)(F)F)NC1CCCC1 | -0.008% (inactive)
Cc1ccccc1CC(=O)NC1CCCC1 | 0.039% (inactive)
CCn1nccc1NCc1ccc(N2CCCC2)cc1 | 0.056% (inactive)
O=C(Cc1cccc(F)c1)NC1CCCC1 | 0.665% (inactive)
c1ccc(-n2nnnc2NCc2ccc(N3CCCC3)cc2)cc1 | 0.051% (inactive)
Fc1ccc(Cn2nnnc2NCc2ccc(N3CCCC3)cc2)cc1 | 0.053% (inactive)
COc1ccc(CC(=O)NC2CCCC2)cc1 | 0.353% (inactive)
O=C(Cc1ccccc1Cl)NC1CCCC1 | -0.009% (inactive)
O=C(Cc1ccccc1C(F)(F)F)NC1CCCC1 | -0.032% (inactive)
CCn1nnc(NCc2ccc(C)cc2)n1 | 0.015% (inactive)
c1ccc(Cn2nnc(NCc3ccc(N4CCCC4)cc3)n2)cc1 | 0.04% (inactive)
Cc1ccc(Cn2nnnc2NCc2ccc(N3CCCC3)cc2)cc1 | 0.022% (inactive)
CCn1nnc(CCc2ccc(N3CCCC3)cc2)n1 | 0.033% (inactive)
CCn1nnnc1NCc1ccccc1N1CCCC1 | -0.011% (inactive)
CCc1ccccc1NCc1ccc(N2CCCC2)cc1 | 0.047% (inactive)
CCCn1nnnc1NCc1ccccc1Cl | -0.011% (inactive)
c1ccc(Cn2nnnc2NCc2ccc(N3CCCC3)cc2)cc1 | 0.055% (inactive)
O=C(Cc1ccc(-c2ccccc2)cc1)NC1CCCCC1 | 7.99% (inactive)
CCn1nccc1/N=C/c1ccc(N2CCCC2)cc1 | 0.02% (inactive)
O=C(Cc1cccc(OC(F)(F)F)c1)NC1CCCC1 | 0.099% (inactive)

system: V. cholerae BH1578 luxCDABE luminescence, 6 h; experiment: as above; details: not given

SMILES | AC40
CCCn1nnnc1NCc1ccc(C(C)C)cc1 | 793 nM
O=C(Cc1ccc(-c2ccccc2)cc1)NC1CCCC1 | 409 nM and 756 nM
Cn1nnnc1NCc1ccc(N2CCCC2)cc1 | 956 nM
CCCn1nnnc1NCc1ccc(N2CCCC2)cc1 | 60.8 nM
CC(C)NC(=O)Cc1ccc(-c2ccccc2)cc1 | 6210 nM
CCn1nnnc1CCc1ccc(N2CCCC2)cc1 | 1680 nM
CCn1nnnc1NCc1ccc(N2CCCCC2)cc1 | 121 nM
CCC(CC)NC(=O)Cc1ccc(-c2ccccc2)cc1 | 5370 nM
CCCCn1nnnc1NCc1ccc(N2CCCC2)cc1 | 5660 nM
CCn1nnnc1NCc1ccc(C(C)C)cc1 | 89.1 nM and 143 nM
O=C(Cc1ccc(-c2ccccc2)cc1)NC1CCOCC1 | 2890 nM
CC(C)c1ccc(CNc2nnnn2C)cc1 | 3260 nM
CCn1nnnc1NCc1cccc(N2CCCC2)c1 | 504 nM
O=C(Cc1ccc(-c2ccccc2)cc1)NC1CCC1 | 510 nM
CCC(C)NC(=O)Cc1ccc(-c2ccccc2)cc1 (stereo not given) | 4820 nM
CCn1nnnc1NCc1ccc(N2CCCC2)cc1 | 20.9 nM
